Data reported in patent US10947201B2, “Certain chemical entities, compositions, and methods” (NEUPHARMA, INC., priority 2015, dated 2021).

Experiments:
EGFR (ErbB1) = target: T1, EGFR (ErbB1) (Homo sapiens, UniProt P00533); assay: Z'-LYTE kinase inhibition assay (Invitrogen), EGFR; type: biochemical
T1 construct: purchased Invitrogen
Method in brief: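 Z'-LYTE FRET assay: 1.1-5.25 ng EGFR with 2 μM Tyr 04 peptide in 50 mM HEPES pH 7.5, 10 mM MgCl2, 2 mM MnCl2, 1 mM EGTA, 1 mM DTT, 1% DMSO; 60 min kinase reaction then 60 min development at room temperature. IC50 from 10-point 3-fold titrations, percent inhibition vs concentration.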

EGFR (ErbB1) T790M L858R = target: T2, EGFR (ErbB1) T790M L858R (Homo sapiens, UniProt P00533, L858R/T790M); assay: Z'-LYTE kinase inhibition assay (Invitrogen), EGFR L858R/T790M; type: biochemical
T2 construct: purchased Invitrogen
T2 sequence (P00533 25-1210 T790M/L858R): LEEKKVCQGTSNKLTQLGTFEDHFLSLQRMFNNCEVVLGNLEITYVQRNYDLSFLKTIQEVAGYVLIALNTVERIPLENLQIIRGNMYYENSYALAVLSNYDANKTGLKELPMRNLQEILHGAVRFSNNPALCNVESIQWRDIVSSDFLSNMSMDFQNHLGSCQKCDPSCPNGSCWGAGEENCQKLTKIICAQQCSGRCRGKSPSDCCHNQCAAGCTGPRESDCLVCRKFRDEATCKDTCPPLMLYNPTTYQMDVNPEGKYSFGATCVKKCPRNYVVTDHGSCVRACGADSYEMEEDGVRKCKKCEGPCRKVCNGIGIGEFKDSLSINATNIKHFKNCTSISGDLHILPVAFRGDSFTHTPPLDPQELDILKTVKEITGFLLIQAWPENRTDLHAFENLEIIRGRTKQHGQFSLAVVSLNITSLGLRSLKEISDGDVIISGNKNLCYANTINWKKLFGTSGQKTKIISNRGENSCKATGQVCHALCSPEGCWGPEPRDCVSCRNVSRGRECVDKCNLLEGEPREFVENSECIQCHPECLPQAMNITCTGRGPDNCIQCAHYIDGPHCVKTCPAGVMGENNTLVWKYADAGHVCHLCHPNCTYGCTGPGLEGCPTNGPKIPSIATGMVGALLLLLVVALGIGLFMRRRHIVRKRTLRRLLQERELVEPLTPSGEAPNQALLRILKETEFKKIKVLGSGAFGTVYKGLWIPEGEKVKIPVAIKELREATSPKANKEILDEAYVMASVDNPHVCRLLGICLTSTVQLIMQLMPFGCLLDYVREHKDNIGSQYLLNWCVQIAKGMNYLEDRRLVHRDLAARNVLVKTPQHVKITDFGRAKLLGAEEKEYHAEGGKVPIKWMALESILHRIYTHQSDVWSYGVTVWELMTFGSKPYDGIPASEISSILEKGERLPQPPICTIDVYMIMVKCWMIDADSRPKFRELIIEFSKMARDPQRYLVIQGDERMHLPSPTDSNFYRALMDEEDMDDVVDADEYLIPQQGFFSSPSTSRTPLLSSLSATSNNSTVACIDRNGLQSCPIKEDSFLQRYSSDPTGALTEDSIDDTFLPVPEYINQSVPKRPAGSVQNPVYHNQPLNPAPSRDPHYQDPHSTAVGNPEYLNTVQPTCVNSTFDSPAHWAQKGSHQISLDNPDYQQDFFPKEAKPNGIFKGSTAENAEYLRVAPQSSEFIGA
Method in brief: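 Z′-LYTE FRET assay with EGFR L858R/T790M (0.38-4.22 ng) and 2 μM Tyr 04 peptide in 50 mM HEPES pH 7.0, 10 mM MgCl2, 1 mM EGTA, 1% DMSO; 1 h kinase reaction at room temperature, then 1 h development. 10-point 3-fold titrations; IC50 from concentration vs % inhibition.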

BTK = target: T3, BTK (Homo sapiens, UniProt Q06187); assay: Z'-LYTE kinase inhibition assay (Invitrogen), BTK; type: biochemical; details: compound at 100 nM; [ATP] = Km
T3 construct: purchased Invitrogen
T3 sequence (Q06187 whole entry): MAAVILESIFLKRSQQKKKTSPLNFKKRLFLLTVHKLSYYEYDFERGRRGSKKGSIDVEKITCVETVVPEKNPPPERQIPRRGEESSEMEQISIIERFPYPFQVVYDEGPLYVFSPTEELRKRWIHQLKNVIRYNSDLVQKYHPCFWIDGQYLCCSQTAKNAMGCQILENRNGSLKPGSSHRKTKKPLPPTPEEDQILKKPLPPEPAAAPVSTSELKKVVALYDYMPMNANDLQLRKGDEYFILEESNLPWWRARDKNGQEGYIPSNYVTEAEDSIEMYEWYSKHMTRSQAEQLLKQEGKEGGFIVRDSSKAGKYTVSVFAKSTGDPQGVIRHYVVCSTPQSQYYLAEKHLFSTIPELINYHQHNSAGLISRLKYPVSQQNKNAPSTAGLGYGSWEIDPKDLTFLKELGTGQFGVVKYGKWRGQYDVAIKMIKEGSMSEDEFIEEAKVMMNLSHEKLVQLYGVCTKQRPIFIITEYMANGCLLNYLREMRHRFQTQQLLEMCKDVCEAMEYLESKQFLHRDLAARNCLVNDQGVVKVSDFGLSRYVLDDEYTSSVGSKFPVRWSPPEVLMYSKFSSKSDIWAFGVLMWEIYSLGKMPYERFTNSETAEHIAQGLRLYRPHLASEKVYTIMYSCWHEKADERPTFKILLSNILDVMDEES
Method in brief: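 Z′-LYTE FRET read-out with Tyr 01 peptide 2 μM and 1.04-10.4 ng kinase in HEPES pH 7.5, MgCl2, EGTA, BRIJ-35; 1 h room temperature reaction, then 1 h development.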

A549 cells = assay: MTT cell growth inhibition assay, A549; type: cell-based; details: Homo sapiens, A549 cells (KRAS mutation), 72 h
Experimental: (§1) Inhibition of cell growth by compounds was measured using MTT assay (Mosmann, T., Journal of Immunological Methods, 1983, 65, 55-63). Tumor cell lines were purchased from ATCC (American Type Culture Collection, Manassas, Va.). All cell lines were maintained in RPMI 1640 (Hyclone) supplemented with 10% fetal bovine serum (FBS, Hyclone), glutamine (2 mM, Hyclone), and antibiotics (penicillin 100 U/mL and streptomycin 50 μg/mL) at 37° C. in a humidified atmosphere of 5% CO2 in air. Taxol (as a positive control, Sigma) and compounds were dissolved in DMSO (Sigma), and the final concentration of DMSO in the medium was 1%. Tumor cells were plated in 96-well plates at densities of about 4000 cells/well of a 96-well plate and allowed to adhere/grow for 24 h. They were then treated with various concentrations of drug for 72 h. 3-(4,5-Dimethylthiazol-2-yl)-2,5-diphenyltetrazolium bromide (MTT, Sigma) was used to determine the number of viable cells at the time of compound addition and the number of cells remaining after 72 h compound exposure. The number of cells remaining after 72 h was compared to the number of viable cells at the time of compound addition by measuring the absorbance at 570 nm, allowing for the calculation of growth inhibition.
(§2) All concentrations of compounds were tested in triplicate and controls were averaged over 4 wells. IC50 was calculated by plotting the concentration of compound vs the percentage of inhibition in treated wells using GraphPad Prism 5.
(§3) Tables 5 show IC50 values of several compounds of the invention in A549, A431, H1299, and H1975 human cancer cells. A549 cells have a mutation on KRAS, H3255 cells have L858R mutation, and H1975 cells have double EGFR mutations (L858R/T790M). The scale utilized in Table 5 is as follows: +++ less than 100 nM; ++ between 100 nM and 500 nM; and + greater than 500 nM.

A431 cells = assay: MTT cell growth inhibition assay, A431; type: cell-based; details: Homo sapiens, A-431, 72 h
Experimental: as §1, §2, §3

H3255 cells = assay: MTT cell growth inhibition assay, H3255; type: cell-based; details: Homo sapiens, NCI-H3255, H3255 cells (L858R mutation), 72 h
Experimental: as §1, §2, §3

H1975 cells = assay: MTT cell growth inhibition assay, H1975; type: cell-based; details: Homo sapiens, NCI-H1975, H1975 cells (EGFR L858R/T790M), 72 h
Experimental: as §1, §2, §3

T1 sequence (P00533 25-1210): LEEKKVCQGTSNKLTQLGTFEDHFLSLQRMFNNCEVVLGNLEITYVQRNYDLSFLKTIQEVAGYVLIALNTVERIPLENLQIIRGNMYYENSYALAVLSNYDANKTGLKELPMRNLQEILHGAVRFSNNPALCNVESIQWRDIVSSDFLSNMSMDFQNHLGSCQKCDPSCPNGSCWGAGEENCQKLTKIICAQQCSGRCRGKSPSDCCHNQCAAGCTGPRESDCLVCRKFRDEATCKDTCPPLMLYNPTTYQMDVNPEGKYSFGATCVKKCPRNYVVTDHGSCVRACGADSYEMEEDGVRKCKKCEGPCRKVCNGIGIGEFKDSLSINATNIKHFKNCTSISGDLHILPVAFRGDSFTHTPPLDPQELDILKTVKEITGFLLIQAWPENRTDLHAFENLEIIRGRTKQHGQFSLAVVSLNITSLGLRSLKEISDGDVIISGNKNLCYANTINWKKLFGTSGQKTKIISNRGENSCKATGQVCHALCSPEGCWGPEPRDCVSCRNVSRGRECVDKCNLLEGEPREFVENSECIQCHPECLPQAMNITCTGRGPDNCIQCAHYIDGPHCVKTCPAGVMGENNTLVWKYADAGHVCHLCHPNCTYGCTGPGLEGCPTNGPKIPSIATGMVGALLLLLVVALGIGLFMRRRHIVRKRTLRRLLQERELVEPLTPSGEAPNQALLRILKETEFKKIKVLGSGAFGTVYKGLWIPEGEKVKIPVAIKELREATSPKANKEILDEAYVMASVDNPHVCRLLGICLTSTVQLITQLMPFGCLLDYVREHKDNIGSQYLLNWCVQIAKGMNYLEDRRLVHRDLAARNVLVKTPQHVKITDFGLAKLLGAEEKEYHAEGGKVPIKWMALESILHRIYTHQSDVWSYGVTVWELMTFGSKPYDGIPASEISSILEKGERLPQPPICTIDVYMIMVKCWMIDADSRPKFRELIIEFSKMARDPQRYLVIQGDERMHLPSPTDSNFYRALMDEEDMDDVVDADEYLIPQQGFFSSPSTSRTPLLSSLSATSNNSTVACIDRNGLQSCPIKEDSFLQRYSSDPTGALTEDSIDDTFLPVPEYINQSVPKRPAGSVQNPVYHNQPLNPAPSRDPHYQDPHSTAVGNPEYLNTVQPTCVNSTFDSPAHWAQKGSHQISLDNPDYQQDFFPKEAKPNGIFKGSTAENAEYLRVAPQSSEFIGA

- IC50 (EGFR (ErbB1)): < 100 nM
- inhibition at 0.1 µM (EGFR (ErbB1); compound at 100 nM, [ATP] = Km): > 50%
- IC50 (EGFR (ErbB1) T790M L858R): < 100 nM
- inhibition at 0.1 µM (EGFR (ErbB1) T790M L858R; compound at 100 nM, [ATP] = Km): > 50%
- inhibition at 0.1 µM (BTK): > 50%
- IC50 (A549 cells): < 100 nM
- IC50 (A431 cells): < 100 nM
- IC50 (H3255 cells): < 100 nM
- IC50 (H1975 cells): < 100 nM
Compound: C=CC(=O)Nc1cc(Nc2ncc3cccc(-c4cccc(F)c4)c3n2)ccc1N(C)CCN(C)C [Example C006, N-(2-((2-(dimethylamino)ethyl)(methyl)amino)-5-((8-(3-fluorophenyl)quinazolin-2-yl)amino)phenyl)acrylamide]
